Laboratory results: US9750744
Several values for one entry are separate records, joined by “and”; a condition that tells them apart may be missing. Equal entries are not always repeated. Where two headings read alike, the source gives them in different places.

Assays:
[1] = not given; remark: listed apart in the source

For `O=C1OCCOc2ncc(F)cc2[C@H]2CCCN2c2ccn3ncc1c3n2`, which ring closure, yield of all isomers (from O=C(OCCCl)c1cnn2ccc(N3CCC[C@@H]3c3cc(F)c[nH]c3=O)nc12, ether bond, Cs2CO3, DMF, 22.2 mM, 90.0 °C, 16.0 h) is on record?
Its ring closure, yield of all isomers is 22%.

Which ring closure, isolated yield ([1]; from O=C(NC[C@H](O)CCl)c1cnn2ccc(N3CC(O)C[C@@H]3c3cc(F)ccc3O)nc12, ether bond, 14-membered ring, Cs2CO3, DMF, 21.6 mM, 85.0 °C, 0.5 h) does the source give for `O=C1NC[C@H](O)COc2ccc(F)cc2[C@H]2C[C@@H](O)CN2c2ccn3ncc1c3n2` here?
Its ring closure, isolated yield is 16.2%.

For `O=C1NCCCOc2ccc(F)cc2[C@H]2CCCN2c2ccn3ncc1c3n2`, which ring closure, isolated yield ([1]; from CCOC(=O)c1cnn2ccc(N3CCC[C@@H]3c3cc(F)ccc3OCCCN)nc12, amide bond, 14-membered ring, DIEA, EtOH, 230.0 mM, 200.0 °C, 16.0 h) is on record?
Its ring closure, isolated yield is 50%.

Which ring closure, yield of all isomers (from NCCCn1cc(F)cc([C@H]2CCCN2c2ccn3ncc(C(=O)O)c3n2)c1=O, amide bond, EDCI/HOBt, DCM, 26.4 mM, 25.0 °C, 6.0 h) does the source give for `O=C1NCCCn2cc(F)cc(c2=O)[C@H]2CCCN2c2ccn3ncc1c3n2` here?
The ring closure, yield of all isomers was 39%.

Which ring closure, isolated yield ([1]; from NCCCc1ncc(F)cc1[C@H]1CCCN1c1ccn2ncc(C(=O)O)c2n1, amide bond, 13-membered ring, HATU/DIEA, DMF, 8.4 mM, 3.0 h) does the source give for `O=C1NCCCc2ncc(F)cc2[C@H]2CCCN2c2ccn3ncc1c3n2` here?
The ring closure, isolated yield was 39%.

With `COC(=O)c1cnn2ccc(N3CCC[C@@H]3c3cc(F)cnc3CCC(C)(C)NC(=O)OC(C)(C)C)nc12` as the molecule, how does the ring closure, isolated yield ([1]; the molecule shown is the open-chain precursor, amide bond, 13-membered ring, EDCI/HOBt/TEA, DMF, 39.4 mM, 45.0 °C, 3 steps) read?
Its ring closure, isolated yield is 48.3%.

Which ring closure, isolated yield ([1]; from O=C(Nc1ncccc1CCl)c1cnn2ccc(N3CCC[C@@H]3c3cc(F)cnc3O)nc12, ether bond, 14-membered ring, Cs2CO3, DMF, 84.8 mM, 60.0 °C, 4.0 h, with chain assembly) does the source give for `O=C1Nc2ncccc2COc2ncc(F)cc2[C@H]2CCCN2c2ccn3ncc1c3n2` here?
Its ring closure, isolated yield is 2.2%.

Which ring closure, isolated yield ([1]; the molecule shown is the open-chain precursor, amine bond, 14-membered ring, PS-PPh3/CCl4, DCM, 26.0 mM, 25.0 °C) does the source give for `NCCCOc1ccc(F)cc1[C@H]1CCCN1c1ccn2ncc(CO)c2n1` here?
The ring closure, isolated yield was 57.5%.

For `O=C1NCCCOc2ncc(F)cc2[C@H]2CCCN2c2ccn3ncc1c3n2`, which ring closure, isolated yield ([1]; from O=C(NCCCCl)c1cnn2ccc(N3CCC[C@@H]3c3cc(F)cnc3O)nc12, ether bond, 14-membered ring, Cs2CO3, DMF, […], 85.0 °C, 16.0 h) is on record?
The ring closure, isolated yield was 44%.

For `Fc1ccc2c(c1)[C@H]1CCCN1c1ccn3ncc(c3n1)CNCCO2`, which ring closure, isolated yield ([1]; from NCCOc1ccc(F)cc1[C@H]1CCCN1c1ccn2ncc(C=O)c2n1, amine bond, 13-membered ring, Me4NBH(OAc)3, DCM, 8.4 mM, 25.0 °C, 16.0 h) is on record?
Its ring closure, isolated yield is 21.6%.

With `O=C1NC[C@H](O)COc2ccc(F)cc2C2CC(F)(F)CN2c2ccn3ncc1c3n2` (stereo partly shown) as the molecule, how does the ring closure, isolated yield ([1]; from O=C(NC[C@H](O)CCl)c1cnn2ccc(N3CC(F)(F)CC3c3cc(F)ccc3O)nc12, ether bond, 14-membered ring, Cs2CO3, DMF, 20.0 mM, 85.0 °C, 0.5 h) read?
Its ring closure, isolated yield is 20% and 24%.

Which ring closure, yield of all isomers (from O=C(NC[C@H](O)CCl)c1cnn2ccc(N3CCC[C@@H]3c3cc(F)c[nH]c3=O)nc12, amine bond, Cs2CO3, DMF, […], 85.0 °C, 2.0 h) does the source give for `O=C1NC[C@H](O)Cn2cc(F)cc(c2=O)[C@H]2CCCN2c2ccn3ncc1c3n2` here?
Its ring closure, yield of all isomers is 12%.

For `O=C1NCCCCn2cc(F)cc(c2=O)[C@H]2CCCN2c2ccn3ncc1c3n2`, which ring closure, isolated yield ([1]; other bond, 15-membered ring) is on record?
Its ring closure, isolated yield is 6%.
